According to patent US10947210B2 (priority 2015, dated 2021):

biological target: HCV RNA-dependent RNA polymerase (NS5B) (Hepatitis C virus genotype 1b (isolate BK) (HCV), UniProt P26663); experiment: RNA-Dependent RNA HCV NS5B (polymerase) Assay and IC50 Determination; format: biochemical; conditions: purified HCV NS5B polymerase, polyA:U16 substrate, 32P-UTP incorporation; read-out: IC50
Method: RNA-Dependent RNA HCV NS5B (polymerase) Assay and IC50 Determination.
The reaction mixtures consisted of 50 mM Hepes-KOH, pH 7.5, 5 mM MgCl2, 5 mM DTT, 2% glycerol, 0.01% Triton® X-100, 0.5 uM polyA:U16 substrate, purified HCV RNA-dependent RNA polymerase, 10 μM UTP, and ^32P-UTP (Perkin Elmer). The reaction mixtures incubated at 30° C. for 60 minutes, and then filtered through Zeta probe membrane (BioRad). The filter was washed with 5×SSC (75 mM sodium citrate, pH 7 and 750 mM NaCl), and the radiolabeled RNA products were quantitated by microbeta (Perkin Elmer). For IC50 determination, different concentrations of inhibitors were added to the polymerase reaction mixtures, and incubated at 37° C. for 60 minutes. IC50 values were determined using GraFit (Erithaus software).
Table 1 presents IC50 data obtained using the biochemical assay to test representative compounds. Data are presented as follows: “+++” means <0.1 μM; “++” means ≥0.1 μM but <1.0 μM; “+” means ≥1.0 μM.

HCV RNA-dependent RNA polymerase (NS5B), sequence (P26663 2420-3010): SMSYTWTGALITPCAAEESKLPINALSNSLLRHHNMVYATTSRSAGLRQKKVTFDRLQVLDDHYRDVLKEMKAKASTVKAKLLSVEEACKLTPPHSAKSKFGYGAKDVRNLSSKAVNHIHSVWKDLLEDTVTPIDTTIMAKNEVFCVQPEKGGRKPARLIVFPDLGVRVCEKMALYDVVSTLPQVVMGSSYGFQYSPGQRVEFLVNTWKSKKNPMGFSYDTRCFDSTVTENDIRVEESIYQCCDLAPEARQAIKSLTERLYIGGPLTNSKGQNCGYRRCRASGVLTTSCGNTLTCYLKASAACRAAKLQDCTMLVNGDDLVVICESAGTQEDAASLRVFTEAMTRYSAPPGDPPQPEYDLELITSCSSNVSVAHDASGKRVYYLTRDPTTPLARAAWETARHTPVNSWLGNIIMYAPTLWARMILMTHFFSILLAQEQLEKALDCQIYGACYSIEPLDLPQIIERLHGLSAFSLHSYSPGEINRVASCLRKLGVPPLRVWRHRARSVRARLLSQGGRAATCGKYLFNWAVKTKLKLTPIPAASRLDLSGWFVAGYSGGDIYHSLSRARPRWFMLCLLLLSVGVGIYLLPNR

Row | SMILES | IC50 [µM]
1 | CCOC(=O)c1ccc(OCCCCCCN(c2cc3oc(-c4ccc(F)cc4)c(C(=O)NC)c3cc2C2CC2)S(C)(=O)=O)cc1 [Compound 15-7, 4-(6-{[5-Cyclopropyl-2-(4-fluoro-phenyl)-3-methylcarbamoyl-benzofuran-6-yl]-methanesulfonyl-amino}-hexyloxy)-benzoic Acid Ethyl Ester] | 0.1 to 1
2 | CNC(=O)c1c(-c2ccc(F)cc2)oc2cc(N(CCCOCCOCc3cccc(C(C)=O)c3)S(C)(=O)=O)c(C3CC3)cc12 [Compound 03-6A, 6-(N-(3-(2-((3-acetylbenzyl)-oxy)-ethoxy)-propyl)-methylsulfonamido)-5-cyclopropyl-2-(4-fluorophenyl)-N-methylbenzofuran-3-carboxamide] | > 1
3 | CNC(=O)c1c(-c2ccc(F)cc2)oc2cc(N(CCNC(=O)CNC(=O)c3cccc(CCCC(=O)O)c3)S(C)(=O)=O)c(C3CC3)cc12 [Compound 07-10, 4-(3-{[(2-{[5-Cyclopropyl-2-(4-fluoro-phenyl)-3-methylcarbamoyl-benzofuran-6-yl]-methanesulfonyl-amino}-ethylcarbamoyl)-methyl]-carbamoyl}-phenyl)-butyric Acid] | > 1
4 | CCOC(=O)/C(O)=C/C(=O)c1cccc(COCCOCCOCCOCCN(c2cc3oc(-c4ccc(F)cc4)c(C(=O)NC)c3cc2C2CC2)S(C)(=O)=O)c1 [Compound 02-9C, 4-[3-(2-{2-[2-(2-{[5-Cyclopropyl-2-(4-fluoro-phenyl)-3-methylcarbamoyl-benzofuran-6-yl]-methanesulfonyl-amino}-ethoxy)-ethoxy]-ethoxy}-ethoxymethyl)-phenyl]-2-hydroxy-4-oxo-but-2-enoic Acid Ethyl Ester] | > 1
5 | CNC(=O)c1c(-c2ccc(F)cc2)oc2cc(N(CC(=O)N(C)CC(=O)NCc3cccc(C(=O)C=C(O)C(=O)O)c3)S(C)(=O)=O)c(C3CC3)cc12 [Compound 09-14B, 4-[3-({2-[(2-{[5-Cyclopropyl-2-(4-fluoro-phenyl)-3-methylcarbamoyl-benzofuran-6-yl]-methanesulfonyl-amino}-acetyl)-methyl-amino]-acetylamino}-methyl)-phenyl]-2-hydroxy-4-oxo-but-2-enoic acid] | > 1
6 | CCOC(=O)c1cccc(OCCOCCOCCN(c2cc3oc(-c4ccc(F)cc4)c(C(=O)NC)c3cc2C2CC2)S(C)(=O)=O)c1 [Compound 14-6B, 3-{2-[2-(2-{[5-Cyclopropyl-2-(4-fluoro-phenyl)-3-methylcarbamoyl-benzofuran-6-yl]-methanesulfonyl-amino}-ethoxy)-ethoxy]-ethoxy}-benzoic Acid Ethyl Ester] | > 1
7 | CNC(=O)c1c(-c2ccc(F)cc2)oc2cc(N(CCOCCOCCOc3cccc(C(=O)O)c3)S(C)(=O)=O)c(C3CC3)cc12 [Compound 14-7B, 3-{2-[2-(2-{[5-Cyclopropyl-2-(4-fluoro-phenyl)-3-methylcarbamoyl-benzofuran-6-yl]-methanesulfonyl-amino}-ethoxy)-ethoxy]-ethoxy}-benzoic Acid] | 0.1 to 1
8 | CNC(=O)c1c(-c2ccc(F)cc2)oc2cc(N(CCCOCCCc3ccc(C(=O)OC)cc3)S(C)(=O)=O)c(C3CC3)cc12 [Compound 13-7B, 4-[3-(3-{[5-Cyclopropyl-2-(4-fluoro-phenyl)-3-methylcarbamoyl-benzofuran-6-yl]-methanesulfonyl-amino}-propoxy)-propyl]-benzoic Acid Methyl Ester] | 0.1 to 1
9 | CNC(=O)c1c(-c2ccc(F)cc2)oc2cc(N(CCOCCOCCOCCOCCOCc3cccc(C(C)=O)c3)S(C)(=O)=O)c(C3CC3)cc12 [Compound 02-8D, 6-({2-[2-(2-{2-[2-(3-Acetyl-benzyloxy)-ethoxy]-ethoxy}-ethoxy)-ethoxy]-ethyl}-methanesulfonyl-amino)-5-cyclopropyl-2-(4-fluoro-phenyl)-benzofuran-3-carboxylic Acid Methylamide] | > 1
10 | CNC(=O)c1c(-c2ccc(F)cc2)oc2cc(N(CCOCCOCc3ccc(C(=O)OC)c(C)c3)S(C)(=O)=O)c(C3CC3)cc12 [Compound 18-9A, 4-[2-(2-{[5-Cyclopropyl-2-(4-fluoro-phenyl)-3-methylcarbamoyl-benzofuran-6-yl]-methanesulfonyl-amino}-ethoxy)-ethoxymethyl]-2-methyl-benzoic Acid Methyl Ester] | > 1
11 | CNC(=O)c1c(-c2ccc(F)cc2)oc2cc(N(CCOCCOCCCc3ccccc3C(=O)O)S(C)(=O)=O)c(C3CC3)cc12 [Compound 12-7A, 2-{3-[2-(2-{[5-Cyclopropyl-2-(4-fluoro-phenyl)-3-methylcarbamoyl-benzofuran-6-yl]-methanesulfonyl-amino}-ethoxy)-ethoxy]-propyl}-benzoic Acid] | < 0.1
12 | CNC(=O)c1c(-c2ccc(F)cc2)oc2cc(N(CC(=O)NCC(=O)NCCCCC(=O)OC)S(C)(=O)=O)c(C3CC3)cc12 [Compound 10-3A, 5-[2-(2-{[5-Cyclopropyl-2-(4-fluoro-phenyl)-3-methylcarbamoyl-benzofuran-6-yl]-methanesulfonyl-amino}-acetylamino)-acetylamino]-pentanoic Acid Methyl Ester] | > 1
13 | CNC(=O)c1c(-c2ccc(F)cc2)oc2cc(N(CCOCCOCCc3ccccc3C(=O)O)S(C)(=O)=O)c(C3CC3)cc12 [Compound 11-6A, 2-{2-[2-(2-{[5-Cyclopropyl-2-(4-fluoro-phenyl)-3-methylcarbamoyl-benzofuran-6-yl]-methanesulfonyl-amino}-ethoxy)-ethoxy]-ethyl}-benzoic Acid] | < 0.1
14 | CCOC(=O)c1cccc(CCOCCOCCN(c2cc3oc(-c4ccc(F)cc4)c(C(=O)NC)c3cc2C2CC2)S(C)(=O)=O)c1 [Compound 11-5B, 3-{2-[2-(2-{[5-Cyclopropyl-2-(4-fluoro-phenyl)-3-methylcarbamoyl-benzofuran-6-yl]-methanesulfonyl-amino}-ethoxy)-ethoxy]-ethyl}-benzoic Acid Ethyl Ester] | > 1
15 | CNC(=O)c1c(-c2ccc(F)cc2)oc2cc(N(CCOCCOCCOCc3cccc(C(=O)OC)c3)S(C)(=O)=O)c(C3CC3)cc12 [Compound 06-6F, 3-{2-[2-(2-{[5-Cyclopropyl-2-(4-fluoro-phenyl)-3-methylcarbamoyl-benzofuran-6-yl]-methanesulfonyl-amino}-ethoxy)-ethoxy]-ethoxymethyl}-benzoic acid methyl ester] | > 1
16 | CNC(=O)c1c(-c2ccc(F)cc2)oc2cc(N(CCOCCOCCOCCOCCOCCOCc3ccc(C(=O)O)cc3)S(C)(=O)=O)c(C3CC3)cc12 [Compound 30-13, 4-{2-[2-(2-{2-[2-(2-{[5-Cyclopropyl-2-(4-fluoro-phenyl)-3-methylcarbamoyl-benzofuran-6-yl]-methanesulfonyl-amino}-ethoxy)-ethoxy]-ethoxy}-ethoxy)-ethoxy]-ethoxymethyl}-benzoic acid] | > 1
17 | CNC(=O)c1c(-c2ccc(F)cc2)oc2cc(N(CCCCCOCCCCC(=O)O)S(C)(=O)=O)c(C3CC3)cc12 [Compound 28-8A, 5-((5-(N-(5-cyclopropyl-2-(4-fluorophenyl)-3-(methylcarbamoyl)benzofuran-6-yl)-methylsulfonamido)-pentyl)-oxy)-pentanoic Acid] | < 0.1
